In patent publication US12648926B2, “Dietary supplement comprising aldehyde functional monoterpenoids” (priority 2020, dated 2026):
“And” between values parts separate entries of the source, which are not always exact repeats. Equal values may be shown once. Read-outs that look alike come from different tables or passages of the source.

Columns and labels:
[1] = system: EpiAirway™ (AIR-100) tissues; conditions: for TEER Significant?: alpha 0.05
[2] = system: EpiAirway™ (AIR-100) tissues
[3] = system: EpiAirway™ (AIR-100) tissues; conditions: H&E staining after 24-hour recovery
[4] = post 24 hr recovery: Untreated Control vs treatment
[5] = pre exposure vs post 24 hr recovery, same treatment

**Q.** For Triton X-100 [0.5% Triton], which “Effect on barrier function / TEER” value ([1]; 24-hour recovery) is on record?
**A.** dropped completely

**Q.** What about the “24 hr TEER Mean” value ([1]; group mean n=3 tissues, after 24-hour recovery) of the same substance?
**A.** 8.6 Ohms*cm2

**Q.** What about the “Pre-Exposure TEER Mean” value ([1]; group mean n=3 tissues, before exposure) of the same substance?
**A.** 749.8 Ohms*cm2

**Q.** And the “24 hr TEER Ohms*cm2” value ([1]; per tissue, after 24-hour recovery)?
**A.** 9.0 Ohms*cm2 and 8.4 Ohms*cm2

**Q.** And the “Pre-Exposure TEER Ohms*cm2” value ([1]; per tissue, before exposure)?
**A.** 672.0 Ohms*cm2 and 832.8 Ohms*cm2 and 744.6 Ohms*cm2

**Q.** What about the “TEER Mean Diff., Tukey's multiple comparisons test” value [1, 4] of the same substance?
**A.** 628.6

**Q.** And the “TEER Significant?” value [1, 4]?
**A.** Yes

**Q.** What about the “TEER Mean Diff., Tukey's multiple comparisons test” value [1, 5] of the same substance?
**A.** 741.2

**Q.** What about the “TEER Significant?” value [1, 5] of the same substance?
**A.** Yes

**Q.** And the “TEER statistics test details: group mean, pre exposure” value ([1]; pre exposure, N=3)?
**A.** 749.8

**Q.** What about the “24 hr TEER” value ([1]; raw reading per tissue after 24-hour recovery, background 5 not subtracted) of the same substance?
**A.** 20 and 19

**Q.** And the “Pre-Exposure TEER” value ([1]; raw reading per tissue before exposure, background 5 not subtracted)?
**A.** 1125 and 1393 and 1246

**Q.** What about the “Effect on tissue viability” value ([2]; LDH assay, 24-hour time point) of the same substance?
**A.** complete loss of viability

**Q.** What about the “LDH viability Mean Diff., Tukey's multiple comparisons test” value ([2]; Untreated Control vs treatment) of the same substance?
**A.** 100

**Q.** And the “LDH viability Significant?” value ([2]; Untreated Control vs treatment, alpha 0.05)?
**A.** Yes

**Q.** And the “LDH Group Mean OD” value ([2]; group mean n=3 tissues, 24-hour time point)?
**A.** 1.125

**Q.** What about the “% Viability Mean” value ([2]; group mean n=3 tissues, LDH assay, 24-hour time point) of the same substance?
**A.** 0.0%

**Q.** And the “LDH Mean OD” value ([2]; mean of duplicates per tissue, 24-hour time point)?
**A.** 1.181 and 1.062 and 1.132

**Q.** And the “LDH statistics test details: group mean” value ([2]; percent viability, 24-hour time point)?
**A.** −0.01667

**Q.** What about the “Tissue morphology” value [3] of the same substance?
**A.** significant tissue disruption
